Where “and” joins values, the source holds several entries; their conditions need not be identical. Identical values can stand only once. Calls of active or inactive are those of the source.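 How the source made its calls: active means compounds giving half or more protection of infected cells from virus-caused growth loss, again on retest; inactive means the rest.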 Where a SMILES comes first, the peptide text is derived from it. [ ]: non-standard residue; d: D form. The star is where a group is joined. Fmoc = O=C(OCC1c2ccccc2-c2ccccc21)*; NMeF = CN[CH](Cc1ccccc1)C(=O)O; NMeV = CN[CH](C(=O)O)C(C)C; Boc = CC(C)(C)OC(=O)*; OBn = c1ccc(CO*)cc1; OtBu = CC(C)(C)O*
Test system: CEM cells HIV-1 protection, formazan growth assay
Assay: NCI AIDS Antiviral Assay
Details: for IC50: measured here: growth of uninfected CEM cells
In short: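 Soluble formazan readout of cell growth; CEM cells ± HIV-1; 5 drug concs. ≥50% protection → retest; ≥50% again = moderately active; reproducible 100% = confirmed active.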

Row | SMILES | EC50 | IC50 | outcome
1 | CCc1ccc(/C(C#N)=C/c2ccccc2Cl)cc1 | > 200 µM | 27.5 µM | –
2 | C=CCc1cc(OC)c(O)c(C(=O)/C=C/c2ccc(OC)c(OC)c2)c1 | > 14.8 µM | > 14.8 µM | –
3 | OC(c1ccccn1)C1CNc2ccccc21 (stereo not drawn) | – | – | inactive
4 | CC(=O)Nc1ccc(Nc2nc(=O)[nH]c(=O)[nH]2)cc1 | > 200 µM | > 200 µM | –
5 | CC(C)C(NC(=O)OC(C)(C)C)C(=O)N(C)C(Cc1ccccc1)C(=O)N(C)C(C(=O)N(C)C(C(=O)OCc1ccccc1)C(C)C)C(C)C (stereo not drawn) (Boc-V[NMeF][NMeV][NMeV]-OBn; configuration not given here) | > 200 µM | > 200 µM | –
6 | [Cl][Cu+].[NH-]C(Cc1c[nH]cn1)C(=O)O (stereo not drawn) | > 46.8 µM | 26.9 µM | –
7 | Cc1c([N+](=O)[O-])oc2c1C(=O)NCCC2 | > 437 µM | 70.8 µM | –
8 | CCOC(=O)N1C2c3ccccc3C(c3ccccc32)N1C(=O)OCC | > 56.2 µM | > 56.2 µM | –
9 | O=C(O)/C=C/c1ccc([N+](=O)[O-])cc1 | > 97.7 µM | > 97.7 µM | –
10 | CCn1cc(C(=O)O)c(=O)c2cc3c(cc21)S(=O)(=O)CC3 | > 200 µM | > 200 µM | –
11 | CN1c2ccccc2N(C(=O)c2ccc(Cl)cc2)C(CC(=O)O)c2cccn21 (stereo not drawn) | > 631 µM | 117 µM | –
12 | O=C(c1nc2ccc(Cl)cc2[nH]c1=O)C(O)c1ccccc1 (stereo not drawn) | > 575 µM | 11.5 µM | –
13 | O=C(/C=C/c1ccccc1)Oc1cccc2cccnc12 | > 200 µM | 3.63 µM | –
14 | C=CCOC(=O)CC[N+]1=CCC(c2ccccc2)(c2ccccc2)O1 | > 29.5 µM | > 29.5 µM | –
15 | CS(=O)(=O)CCC(N)P(=O)(O)O (stereo not drawn) | > 200 µM | > 200 µM | –
16 | Cc1ccc(NC(=O)CC(=O)N2N=C(N(c3ccccc3)c3ccccc3)CC2c2ccccc2)cc1 (stereo not drawn) | – | – | inactive
17 | CCN1C[C@]2(C)CCC(OC)C34[C@@H]1[C@@]1(OCO[C@@]15C[C@H](OC)[C@@H]1C[C@]3(O)[C@@H]5C1OC(C)=O)[C@@H](OC(C)=O)[C@@H]42 (stereo partly drawn) | – | – | inactive
18 | O=C(/C=C/C(Cl)(Cl)Cl)Nc1ccc(Cl)cc1 | > 200 µM | 10.2 µM | –
19 | O=C1CCCCCCCCCCC(=O)C2CCOCCOCCOCCC1Cc1cccc(n1)C2 | > 138 µM | > 138 µM | –
20 | CCOC(=O)/C(C#N)=C/c1ccc(Cl)cc1 | > 110 µM | > 110 µM | –
21 | CCCCCCC(=O)N1SC(NC(=O)OC)=Nc2ccccc21 | > 77.6 µM | 10.2 µM | –
22 | O=C(/C=C/c1ccccc1)Oc1cccc(Br)c1 | > 200 µM | 17.8 µM | –

Row | SMILES | EC50 | IC50 | outcome
23 | O=C1CC(=O)NC(=NN2C(=O)CSC2c2ccccc2)N1 (stereo not drawn) | > 200 µM | > 200 µM | –
24 | CC1=CC2=C(OCO1)C(=O)c1ccccc1C2=O | – | – | inactive
25 | CCOCC(NC(=O)C(CC(C)C)NC(=O)OC(C)(C)C)C(N)=O (stereo not drawn) (Boc-Leu-Ser(Et)-NH2; configuration not given here) | > 200 µM | > 200 µM | –
26 | OCC1(CO)CC2C3C=CC(C3)C2C1 (stereo not drawn) | > 229 µM | > 229 µM | –
27 | CCCCc1c2c(nc3c1CCc1cc(C=O)c(N)nc1-3)/C(=C/c1ccccc1)CCC2 | > 4.37 µM | > 4.37 µM | –
28 | CC(C)C(NC(=O)OCC1c2ccccc2-c2ccccc21)C(=O)NC(CCC(=O)OC(C)(C)C)C(=O)OC(C)(C)C (stereo not drawn) (Fmoc-Val-Glu(OtBu)-OtBu; configuration not given here) | > 200 µM | 24.5 µM | –
29 | O=C(O)CCCCCCCc1cccc(OCCO)c1 | > 200 µM | > 200 µM | –
30 | O/N=C1/CCCc2nonc21 | > 200 µM | > 200 µM | –
31 | O=C(c1ccccc1)N1OCCC1Nc1ccc(Br)cc1 (stereo not drawn) | – | – | inactive
32 | Cc1ccc(-c2cc(=S)ss2)cc1 | > 200 µM | 166 µM | –
33 | COc1ccc(C(F)(F)F)cc1NC(=O)O/N=C(/Cl)C(C)C | > 20 µM | 3.72 µM | –
34 | COc1ccc2nc3cc(Cl)ccc3c(NCCCNCCCNc3c4ccc(Cl)cc4nc4ccc(OC)cc34)c2c1 | > 2 µM | 0.0148 µM | –
35 | Cc1ncc([N+](=O)[O-])n1CCNC(=O)CCCCCn1ccnc1[N+](=O)[O-] | – | – | inactive
36 | CCC/C(Cl)=N\OC(=O)Nc1ccc(Br)cc1 | – | – | inactive
37 | COc1ccc(-c2coc3cc(OC)c(OC)c(OC)c3c2=O)cc1 | > 200 µM | > 200 µM | –
38 | Cc1cc2c(=O)cc(-c3ccc(C(=O)O)cc3)oc2c(C(=O)O)c1C | – | – | inactive
39 | CCOC(=O)c1c(-c2ccc(Cl)cc2)c(C#N)c(=S)n(C2OC(COC(C)=O)C(OC(C)=O)C(OC(C)=O)C2OC(C)=O)c1-c1ccccc1 (stereo not drawn) | > 200 µM | 77.6 µM | –
40 | CC[N+]1(C)CSC(=S)N(C)C1 (stereo not drawn) | > 200 µM | 75.9 µM | –
41 | CC1(C)C2CCC1(C)C(NC(=O)COCCOCC(N)=O)C2 (stereo not drawn) | > 83.2 µM | 41.7 µM | –
42 | C=C1CN(S(=O)(=O)c2ccc(C)cc2)CCCN(Cc2ccsc2)CCCN(S(=O)(=O)c2ccc(C)cc2)C1 | > 200 µM | 52.5 µM | –
43 | CS(=O)(=O)OCCN1CCN(C(=O)c2cccc3c(Nc4ccc(S(=O)(=O)N=C(N)N)cc4)c4ccccc4nc23)CC1 | > 35.5 µM | > 35.5 µM | –
44 | Cc1ccc(S(=O)(=O)SCc2ccccc2)cc1 | > 67.6 µM | 5.62 µM | –

Row | SMILES | EC50 | IC50 | outcome
45 | Fc1ccc(N=NN2CCCC2)cc1 | > 200 µM | 123 µM | –
46 | O=S(=O)([O-])[O-].O=c1[nH]cnc2nc[n-]c12.[OH3+].[OH3+].[Zn+2] | > 21.4 µM | > 21.4 µM | –
47 | O=C(O/N=C1/CCC/C1=C\c1ccccc1)c1ccc([N+](=O)[O-])cc1 | – | – | inactive
48 | O=C1C2CN(Cc3ccccc3)CC1CN(Cc1ccccc1)C2 | > 214 µM | 141 µM | –
49 | CC(C)=CCN1CCCn2c(=S)[nH]c3cccc(c32)C1 | > 200 µM | > 200 µM | –
50 | Cc1nnc(Sc2nc(C#N)c(C#N)nc2Sc2nnc(C)s2)s1 | > 200 µM | 8.13 µM | –
51 | N#C/C(=C\c1c(O)ccc2ccccc12)c1ccc([N+](=O)[O-])cc1 | > 100 µM | > 100 µM | –
52 | Cc1cccc(NC(=O)C(=O)C2C(=O)NC(=O)NC2=O)c1C | > 832 µM | 794 µM | –
53 | COC1/C=C\OC2(C)Oc3c(C)c(O)c4c(O)c(c(C=Nc5ccccc5C)c(O)c4c3C2=O)NC(=O)/C(C)=C\C=C/C(C)C(O)C(C)C(O)C(C)C(OC(C)=O)C1C (stereo not drawn) | > 200 µM | 29.5 µM | –
54 | NS(=O)(=O)c1nnc(NSc2ccc([N+](=O)[O-])cc2)s1 | > 200 µM | 46.8 µM | –
55 | CCOc1ccccc1N=NC1C(=O)N(C(=O)CC(=O)Nc2ccccc2Cl)N=C1C (stereo not drawn) | > 200 µM | > 200 µM | –
56 | CCCCCCCCCCCCC1=C(OC)C(=O)c2ccc(C)nc2C1=O | – | – | inactive
57 | CCOC(=O)c1cn2c(n1)sc1cc(OC)ccc12 | > 20 µM | 1.7 µM | –
58 | NC1(S(=O)(=O)O)c2ccccc2-c2ccccc21 | > 200 µM | 151 µM | –
59 | C[Si](C)(C)OC1(C2=CCCC2)CCCC1CC#N (stereo not drawn) | > 955 µM | > 955 µM | –
60 | CCOC(=O)c1oc2cc3c(c4c2c1-c1ccccc1N4C)C=CC(C)(C)O3 | > 200 µM | 120 µM | –
61 | CCOC(=O)C(=O)Nc1c(C)cccc1C(C)(C)C | > 135 µM | > 135 µM | –
62 | C[CH2][Sn]([Cl])([CH2]C)[CH2]C | – | – | inactive
63 | CCN(CC)C(=O)CCn1ccc(=O)[nH]c1=O | > 1050 µM | > 1050 µM | –
64 | COc1ccc(-c2c(C(C)=O)c(C)n(C3OC(COC(C)=O)C(OC(C)=O)C(OC(C)=O)C3OC(C)=O)c(=S)c2C#N)cc1 (stereo not drawn) | > 200 µM | 87.1 µM | –
65 | COc1cccc(N2C(=O)C3CC(CC(C)(C)C)c4c([nH]c5ccccc45)C3C2=O)c1 (stereo not drawn) | > 200 µM | 42.7 µM | –
66 | COc1ccc2c(c1OC)C13CCCC[C@H]1C(C2)[N+](C)(C)CC3 (stereo partly drawn) | > 562 µM | > 562 µM | –

Row | SMILES | EC50 | IC50 | outcome
67 | CCc1c(Cc2[nH]c(Cc3[nH]c(C=O)c(C)c3CC)c(CC)c2CC)[nH]c(C=O)c1C | > 200 µM | > 200 µM | –
68 | CC(C)=CCNc1ncnc2c1ncn2CCC#N | > 200 µM | > 200 µM | –
69 | Cc1cc(C)c(C2[C@H]3C(=O)N(c4ccc(Cc5ccc(N6C(=O)[C@@H]7ON(c8ccccc8)C(c8c(C)cc(C)cc8C)[C@@H]7C6=O)cc5)cc4)C(=O)[C@H]3ON2c2ccccc2)c(C)c1 (stereo partly drawn) | > 22.4 µM | > 22.4 µM | –
70 | CCN(CC)c1ccc(N=Nc2ccc(-c3nc4ccc[n+](C)c4o3)cc2)cc1 | > 2.04 µM | > 2.04 µM | –
71 | Cn1c(=O)c2ccc(-c3ccc(Br)cc3)nc2n(C)c1=O | – | – | inactive
72 | CC1(C)OC(CP(c2ccccc2)c2ccccc2)C(CP(c2ccccc2)c2ccccc2)O1 (stereo not drawn) | > 2 µM | 0.229 µM | –
73 | O=C(CCCCCCCCC(=O)N1C(=O)CC(=O)N(c2ccc(Cl)cc2)C1=S)N1C(=O)CC(=O)N(c2ccc(Cl)cc2)C1=S | > 200 µM | 81.3 µM | –
74 | COc1cc(N)c2nc(C(O)C(O)C(O)CO)cnc2c1 (stereo not drawn) | > 851 µM | 617 µM | –
75 | Cc1ccc(OCC2OC(n3cnc4c(Cl)ncnc43)CC2Oc2ccc(C)cc2)cc1 (stereo not drawn) | > 200 µM | 6.92 µM and 12.3 µM | –
76 | CC1=NN(C(=O)c2ccc(Cl)cc2)C(=O)/C1=C/c1ccco1 | > 22.9 µM | > 22.9 µM | –
77 | C/C(=N\NC(=S)N1CCN(c2ccccn2)CC1)c1cccc(C)n1 | > 42.7 µM | 0.0155 µM | –
78 | O=C(Nc1nc2ccccc2s1)c1cc([N+](=O)[O-])ccc1Cl | > 200 µM | 3.8 µM | –
79 | COc1ccc(OC)c2c1C1CCC(=O)N1CN2C(C)=O (stereo not drawn) | – | – | inactive
80 | O=C1c2ccccc2C(c2ccccc2)C1c1ccccc1 (stereo not drawn) | > 200 µM | 19.5 µM | –
81 | C=C(CN(C)C)C(=O)c1ccc(Oc2ccccc2)cc1 | > 200 µM | 3.47 µM | –
82 | O=C1CCCCCCCCCC(=O)Nc2ccccc2-c2ccccc2N1 | – | – | inactive
83 | CC(C)C(OC(=O)c1cc(NC(=S)c2ccccc2)ccc1Cl)C(C)C | 0.437 µM | 11.7 µM | –
84 | O=C1CSC(=Nc2ccc(F)cc2F)N1Cc1cccs1 | > 107 µM | 40.7 µM | –
85 | CN(C)CCNc1ccc2c(=O)n(CCN(C)C)c(=O)n3c4ccc(O)cc4c(=O)c1c23 | > 0.2 µM | 0.0107 µM | –
86 | O=c1oc2cccc(O)c2c(O)c1Cc1ccccc1 | > 200 µM | > 200 µM | –
